# Data from patent publication US20180193401A1, “ANTI-OBESITY COMPOSITION COMPRISING NATURAL COMPLEX” (MEGABIOWOOD CO., LTD., priority 2017, published 2018).
# “And” between values parts separate entries of the source, which are not always exact repeats. Equal values may be shown once. Marks after values point to notes of the source that are not given here.
# What was measured:
# [1] = system: C57BL/6J mice; experiment: Body weight gain, food intake and food efficiency ratio, 8-week oral administration; assay type: in vivo; conditions: HD (high-fat diet), HCA 300 mg/kg BW/day oral, 8 weeks
# Excerpt: (§1) Four-week-old male C57BL/6J mice were purchased from Central Lab-Animal Inc. (Seoul, Korea), adapted for a week to a normal diet in which fats accounted for 10% of the total calories, and then used for experiments. To induce obesity, a high fat diet in which fats accounted for 60% of the total calories was supplied to all groups other than a normal diet (ND) group and an ND sample group, and a normal diet in which fats accounted for 10% of the total calories was freely supplied to the ND group and the ND sample group for a total of 8 weeks. The experimental groups were divided into a total of 6 groups: a ND group, a high fat diet (HD) group, a positive control (HCA), a sample group (ND+JMW) in which a hot-water extract complex of bamboo leaves plus quince was administered to the ND group, and sample-efficacy groups (HD+JMW200 and HD+JMW400) in which a two-fold concentration of the hot-water extract complex of bamboo leaves plus quince was administered to the high fat diet group. In this case, ten mice were assigned to each group using a randomized block design, and used for experiments. To check an anti-obesity effect of the sample extract for 8 weeks (week 1 to 8) after a one-week adaptation, the test material was dissolved in distilled water, and orally administered to the positive control, the ND sample group, and the HD sample-efficacy groups once a day at a concentration of 300 mg/kg BW/day, 400 mg/kg BW/day, 200 mg/kg BW/day, and 400 mg/kg BW/day, respectively. Also, distilled water was administered to the ND group and the HD group. After laboratory animals were adapted for a week, the hot-water extract complex of bamboo leaves plus quince was orally administered to the C57BL/6J mice for 8 weeks to observe a change in body weight.
# [2] = system: 3T3-L1 adipocytes; experiment: Analysis of leptin production (ELISA kit); assay type: cell-based; conditions: 100 μg/mL; differentiated adipocytes 0.50±0.01
# Procedure: An adipocyte 3T3-L1 cell line was purchased from the American Type Culture Collection (Rockville, Md., USA), and cultured at 37° C. in a DMEM (Invitrogen, USA) medium supplemented with 10% fetal bovine serum (FBS; Invitrogen, USA) in a 5% CO2 incubator. To avoid contamination, 100 units/mL of penicillin and 100 μg/mL of streptomycin (Gibco/BRL, USA) as antibiotics were added thereto, and the cells were treated with trypsin-EDTA (Gibco/BRL, USA), and sub-cultured. The medium was replaced with a fresh one every two or three days. For treatment with the extract complex, the cultured 3T3-L1 cell line was transferred to a 24-well plate (Corning, USA) at a density of 1×10^5 cells/well. After the medium was replaced with a FBS-free medium the next evening, the 3T3-L1 cell line was treated for 16 hours. Leptin is a hormone that is produced by an obesity gene in adipocytes. Thus, a blood leptin concentration has been widely used for obesity research as an indicator of body fat mass because a secretion rate of leptin increases with an increase in fat accumulated in the adipocytes. […] 3T3-L1 adipocytes were treated with each of the 30% ethanol extract complex of bamboo leaves plus quince and the hot-water extract complex of bamboo leaves plus quince at concentrations of 50 and 100 μg/mL, and a concentration of leptin was then measured using an ELISA kit.
# [3] = system: 3T3-L1 adipocytes; experiment: Analysis of glycerol release; assay type: cell-based; conditions: 100 μg/mL; differentiated adipocytes 18.10±2.28
# Procedure: (§2) An adipocyte 3T3-L1 cell line was purchased from the American Type Culture Collection (Rockville, Md., USA), and cultured at 37° C. in a DMEM (Invitrogen, USA) medium supplemented with 10% fetal bovine serum (FBS; Invitrogen, USA) in a 5% CO2 incubator. To avoid contamination, 100 units/mL of penicillin and 100 μg/mL of streptomycin (Gibco/BRL, USA) as antibiotics were added thereto, and the cells were treated with trypsin-EDTA (Gibco/BRL, USA), and sub-cultured. The medium was replaced with a fresh one every two or three days. For treatment with the extract complex, the cultured 3T3-L1 cell line was transferred to a 24-well plate (Corning, USA) at a density of 1×10^5 cells/well. After the medium was replaced with a FBS-free medium the next evening, the 3T3-L1 cell line was treated for 16 hours. 3T3-L1 adipocytes were treated with each of the 30% ethanol extract complex of bamboo leaves plus quince and the hot-water extract complex of bamboo leaves plus quince at concentrations of 50 and 100 μg/mL to measure an amount of glycerol production. An amount of glycerol production in undifferentiated pre-adipocytes was 2.46±1.34 μg/mL, an amount of glycerol production in differentiated adipocytes was 18.10±2.28 μg/mL, and an amount of glycerol production in the positive control was 32.09±1.23 μg/mL when HCA was present at a concentration of 100 μg/m L.
# [4] = system: 3T3-L1 adipocytes; experiment: Analysis of triglyceride content; assay type: cell-based; conditions: 100 μg/mL; differentiated adipocytes 126.2±1.25
# Procedure: as §2, with “measure” for “measure an amount of glycerol production. An amount of glycerol production in undifferentiated pre-adipocytes was 2.46±1.34 μg/mL, an amount of glycerol production in differentiated adipocytes was 18.10±2.28 μg/mL, and an amount of glycerol production in the positive control was 32.09±1.23 μg/mL when HCA was present at”, “triglycerides.” for “100 μg/m L.”
# [5] = system: C57BL/6J mice; experiment: Weight of adipose tissues (EAT, BAT); assay type: in vivo; conditions: HD (high-fat diet), HCA 300 mg/kg BW/day oral, 8 weeks
# Excerpt: as §1, with “[…] The weights” for “To check an anti-obesity effect”, “adipose tissues in” for “sample extract for 8 weeks (week 1 to 8) after a one-week adaptation,”, “the” for “the test material was dissolved in distilled water, and orally administered to the positive control, the ND sample group, and the HD sample-efficacy groups once a day at a concentration of 300 mg/kg BW/day, 400 mg/kg BW/day, 200 mg/kg BW/day, and 400 mg/kg BW/day, respectively. Also, distilled water was administered to the ND group and the HD group. After”, “treated with” for “were adapted for a week,”, “were measured.” for “was orally administered to the C57BL/6J mice for 8 weeks to observe a change in body weight.”
# [6] = system: C57BL/6J mice; experiment: Analysis of blood lipids; assay type: in vivo; conditions: HD (high-fat diet), HCA 300 mg/kg BW/day oral, 8 weeks
# Excerpt: as §1, with “An amount of blood lipids (triglycerides and cholesterol) was measured in the” for “After”, “treated with” for “were adapted for a week,”, “quince.” for “quince was orally administered to the C57BL/6J mice for 8 weeks to observe a change in body weight.”
structure (smiles),measurement,setting,value
"O=C(O)CC(O)(C(=O)O)C(O)C(=O)O (stereo not shown) [HCA, hydroxycitric acid]",Final body weight,[1],33.50 ± 3.58^b g
same,Food intake,[1],3.79 g/day and 3.79 ± 0.05^c g/day
same,Weight gain,[1],12.83 g/8 weeks and 12.83 ± 0.94^b g/8 weeks
same,amount of leptin production,[2],0.39 ± 0.01 ng/mL
same,amount of glycerol production,[3],32.09 ± 1.23 µg/mL
same,triglyceride content,[4],98.01±1.24 μg/mg protein
same,BAT (brown adipose tissue) weight,[5],0.09 ± 0.02^b g
same,EAT (epididymal adipose tissue) weight,[5],1.70 g and 1.70 ± 0.14^b g
same,HDL-cholesterol,[6],75.66 mg/dL and 75.66 ± 8.11^b mg/dL
same,LDL-cholesterol,[6],131.06 ± 6.82^b mg/dL
same,Total cholesterol (blood),[6],241.53 mg/dL and 241.53 ± 8.87^b mg/dL
same,Triglyceride (blood),[6],174.08 mg/dL and 174.08 ± 3.49^b mg/dL
same,LDL-cholesterol,[6]; listed as positive control,131.06 mg/dL
